In patent US11739053B2, “P62-ZZ chemical inhibitor” (ID4PHARMA, LLC, priority 2011, dated 2023):
Converted amounts (≈) assume the structure as drawn.

Assays:
[1] = system: VCAM-1 expression; test: TNF-α induced VCAM-1 expression by marrow stromal cells, Western blot; type: cell-based, human; details: 3 h pre-treatment, TNFα 48 hours
Protocol: FIG. 5A-B: 5A. VCAM-1 expression using Western blot analysis. Normal human stromal cells were cultured with/without TNF and p62-ZZ inhibitors (#1-6) for 48 hours. The cell lysates were collected and VCAM-1 expression was measured using an anti-VCAM-1 antibody (Santa Cruz). FIG. 5B. IL-6 production by human and mouse marrow stromal cells by ELISA. Normal human and mouse marrow stromal cells were cultured with/without TNFα and p62-ZZ inhibitors (#1-6) for 48 hours. The cell culture media were collected and IL-6 production measured using an IL-6 ELISA kit (R &D). Data are shown as the means (n=2). Normal human or mouse marrow stromal cells were maintained in 10% FBS-IMDM and treated with p62-ZZ inhibitors (#1-6) for 3 hours. Then TNFα or vehicle was added for 48 hours. Cell lysates were collected and VCAM-1 expression measured by Western blot using an anti-VCAM-1 antibody (Santa Cruz). The culture media were collected and IL-6 production was measured using an IL-6 ELISA kit (R&D Company).

[2] = system: IL-6 production; test: TNF-α induced IL-6 production by marrow stromal cells, ELISA; type: cell-based, human
Protocol: FIG. 5A-B: 5A. VCAM-1 expression using Western blot analysis. Normal human stromal cells were cultured with/without TNF and p62-ZZ inhibitors (#1-6) for 48 hours. The cell lysates were collected and VCAM-1 expression was measured using an anti-VCAM-1 antibody (Santa Cruz). FIG. 5B. IL-6 production by human and mouse marrow stromal cells by ELISA. Normal human and mouse marrow stromal cells were cultured with/without TNFα and p62-ZZ inhibitors (#1-6) for 48 hours. The cell culture media were collected and IL-6 production measured using an IL-6 ELISA kit (R &D). Data are shown as the means (n=2).
Normal human or mouse marrow stromal cells were maintained in 10% FBS-IMDM and treated with p62-ZZ inhibitors (#1-6) for 3 hours. Then TNFα or vehicle was added for 48 hours. Cell lysates were collected and VCAM-1 expression measured by Western blot using an anti-VCAM-1 antibody (Santa Cruz). The culture media were collected and IL-6 production was measured using an IL-6 ELISA kit (R&D Company).

[3] = system: CD11b(+) mononuclear cells from wild type mice; test: OCL formation by wild type mouse osteoclast precursors, TRACP stain; type: cell-based; details: 7 days, 50 ng/ml TNFα
Protocol: FIG. 7A-C: 7A. CFU-Blast colony formation. Human CD34(+) cells were cultured with p62-ZZ inhibitor #3 and 1 ng/ml of rhIL-3 IL-6 and SCF for 7 days. Data are shown as the mean±SD (n=5). FIG. 7B. Human OCL formation. Non-adherent mononuclear cells (2.5×10^7 cells/10-cm dish) derived from human bone marrow samples were cultured in α-MEM containing 10% FCS, 100 pg/ml recombinant human GM-CSF(R & D) for 7 days. Then the cells were collected and plated (cell density is 1.0×10^6 cells/nil) in α-MEM containing 20% horse serum with 1 ng/ml TNFα. Half-media changes were performed twice a week containing various concentrations of the p62-ZZ inhibitor #3. The cultures were incubated for a total of 2 weeks at 37° C. with 5% CO2 and 95% humidity. The osteoclasts were stained with the 23C6 antibody which recognizes CD51/61. Data are shown as the mean±SD (n=5). *P<0.01 compared to vehicle treated cultures. 7C. OCL formation by wild type and p62−/− mouse osteoclast precursors. Data is shown as the mean±SD (n=4). *: P<0.01 compared to no-inhibitor cultures. The effects of p62-ZZ inhibitor #3 on osteoclast formation by p62^−/− OCL precursors were examined to determine the specificity of the effects of the p62-ZZ inhibitor #3 on osteoclast precursors. CDIIb(+) mononuclear cells from wild type and p62″/_mice were used. […] OCLs were scored as TRAP positive cells containing 3 or more nuclei. […]

[4] = system: Human CD34(+) mononuclear cells; test: CFU-Blast colony formation; type: cell-based; details: all concentrations, 7 days
Protocol: FIG. 7A-C: 7A. CFU-Blast colony formation. Human CD34(+) cells were cultured with p62-ZZ inhibitor #3 and 1 ng/ml of rhIL-3 IL-6 and SCF for 7 days. Data are shown as the mean±SD (n=5). FIG. 7B. Human OCL formation. Non-adherent mononuclear cells (2.5×10^7 cells/10-cm dish) derived from human bone marrow samples were cultured in α-MEM containing 10% FCS, 100 pg/ml recombinant human GM-CSF(R & D) for 7 days. Then the cells were collected and plated (cell density is 1.0×10^6 cells/nil) in α-MEM containing 20% horse serum with 1 ng/ml TNFα. Half-media changes were performed twice a week containing various concentrations of the p62-ZZ inhibitor #3. The cultures were incubated for a total of 2 weeks at 37° C. with 5% CO2 and 95% humidity. The osteoclasts were stained with the 23C6 antibody which recognizes CD51/61. Data are shown as the mean±SD (n=5). *P<0.01 compared to vehicle treated cultures. 7C. OCL formation by wild type and p62−/− mouse osteoclast precursors. Data is shown as the mean±SD (n=4). *: P<0.01 compared to no-inhibitor cultures. Whether p62-ZZ inhibitor #3 affects hematopoesis since osteoclast precursors are derived from hematopoietic cells was examined. […] Colonies were scored after 7 days of culture using an inverted microscope.

Structure (SMILES): OCCNCc1ccc(OCc2ccccc2)c(OCc2ccccc2)c1 [Compound 3, 2-[[3,4-bis(phenylmethoxy)phenyl]methylamino]ethanol]
- VCAM-1 expression induced by TNF-α blocked compared to vehicle [1]: 30%
- IL-6 production induced by TNF-α blocked compared to vehicle ([2]; marrow stromal cells, 3 h pre-treatment, TNFα 48 hours): 90%
- IL-6 production by TNF-α stimulated normal human stromal cells (result in words) ([2]; normal human stromal cells, FIG. 5B): blocked IL-6 production
- IC50 ([3]; Mus musculus, Osteoclast, 168 h, read-out: IC50 concentration for OCL formation, wild type cells): 1 ng/mL (≈ 2.75 nM)
- OCL formation in wild type mice cell cultures ([3]; various concentrations): blocked OCL formation dose dependently
- CFU-Blast colony formation [4]: do not inhibit
